The record followed here is BindingDB's records for doi:10.1016/j.chembiol.2015.10.013 (Pfizer, 2015).

By IC50 is commonly meant the concentration at which inhibition is half-maximal. Higher therefore signals weaker potency in that assay. As usually defined, the Kd is the free concentration of one partner at which half of the binding sites on the other are occupied at equilibrium, for simple one-to-one binding. A low value points to higher affinity.

Test [1] has as its target T1, CREB-binding protein (Homo sapiens, UniProt Q92793). Kind of test: CBP Fluorescence Resonance Energy Transfer (FRET).
Test [2] has as its target T2, Bromodomain-containing protein 4 (Homo sapiens, UniProt O60885). The test can be described thus: BRD4 Fluorescence Polarization (FP). For orientation: In fluorescence polarisation assays a small probe gives low polarisation when free and higher when bound to something large.
Test [3] addresses T1, CREB-binding protein. Kind of test: ITC. (In ITC the heat of successive injections is recorded.)
The target of test [4] is T2, Bromodomain-containing protein 4. The test can be described thus: ITC.

T1 sequence (Q92793 whole entry): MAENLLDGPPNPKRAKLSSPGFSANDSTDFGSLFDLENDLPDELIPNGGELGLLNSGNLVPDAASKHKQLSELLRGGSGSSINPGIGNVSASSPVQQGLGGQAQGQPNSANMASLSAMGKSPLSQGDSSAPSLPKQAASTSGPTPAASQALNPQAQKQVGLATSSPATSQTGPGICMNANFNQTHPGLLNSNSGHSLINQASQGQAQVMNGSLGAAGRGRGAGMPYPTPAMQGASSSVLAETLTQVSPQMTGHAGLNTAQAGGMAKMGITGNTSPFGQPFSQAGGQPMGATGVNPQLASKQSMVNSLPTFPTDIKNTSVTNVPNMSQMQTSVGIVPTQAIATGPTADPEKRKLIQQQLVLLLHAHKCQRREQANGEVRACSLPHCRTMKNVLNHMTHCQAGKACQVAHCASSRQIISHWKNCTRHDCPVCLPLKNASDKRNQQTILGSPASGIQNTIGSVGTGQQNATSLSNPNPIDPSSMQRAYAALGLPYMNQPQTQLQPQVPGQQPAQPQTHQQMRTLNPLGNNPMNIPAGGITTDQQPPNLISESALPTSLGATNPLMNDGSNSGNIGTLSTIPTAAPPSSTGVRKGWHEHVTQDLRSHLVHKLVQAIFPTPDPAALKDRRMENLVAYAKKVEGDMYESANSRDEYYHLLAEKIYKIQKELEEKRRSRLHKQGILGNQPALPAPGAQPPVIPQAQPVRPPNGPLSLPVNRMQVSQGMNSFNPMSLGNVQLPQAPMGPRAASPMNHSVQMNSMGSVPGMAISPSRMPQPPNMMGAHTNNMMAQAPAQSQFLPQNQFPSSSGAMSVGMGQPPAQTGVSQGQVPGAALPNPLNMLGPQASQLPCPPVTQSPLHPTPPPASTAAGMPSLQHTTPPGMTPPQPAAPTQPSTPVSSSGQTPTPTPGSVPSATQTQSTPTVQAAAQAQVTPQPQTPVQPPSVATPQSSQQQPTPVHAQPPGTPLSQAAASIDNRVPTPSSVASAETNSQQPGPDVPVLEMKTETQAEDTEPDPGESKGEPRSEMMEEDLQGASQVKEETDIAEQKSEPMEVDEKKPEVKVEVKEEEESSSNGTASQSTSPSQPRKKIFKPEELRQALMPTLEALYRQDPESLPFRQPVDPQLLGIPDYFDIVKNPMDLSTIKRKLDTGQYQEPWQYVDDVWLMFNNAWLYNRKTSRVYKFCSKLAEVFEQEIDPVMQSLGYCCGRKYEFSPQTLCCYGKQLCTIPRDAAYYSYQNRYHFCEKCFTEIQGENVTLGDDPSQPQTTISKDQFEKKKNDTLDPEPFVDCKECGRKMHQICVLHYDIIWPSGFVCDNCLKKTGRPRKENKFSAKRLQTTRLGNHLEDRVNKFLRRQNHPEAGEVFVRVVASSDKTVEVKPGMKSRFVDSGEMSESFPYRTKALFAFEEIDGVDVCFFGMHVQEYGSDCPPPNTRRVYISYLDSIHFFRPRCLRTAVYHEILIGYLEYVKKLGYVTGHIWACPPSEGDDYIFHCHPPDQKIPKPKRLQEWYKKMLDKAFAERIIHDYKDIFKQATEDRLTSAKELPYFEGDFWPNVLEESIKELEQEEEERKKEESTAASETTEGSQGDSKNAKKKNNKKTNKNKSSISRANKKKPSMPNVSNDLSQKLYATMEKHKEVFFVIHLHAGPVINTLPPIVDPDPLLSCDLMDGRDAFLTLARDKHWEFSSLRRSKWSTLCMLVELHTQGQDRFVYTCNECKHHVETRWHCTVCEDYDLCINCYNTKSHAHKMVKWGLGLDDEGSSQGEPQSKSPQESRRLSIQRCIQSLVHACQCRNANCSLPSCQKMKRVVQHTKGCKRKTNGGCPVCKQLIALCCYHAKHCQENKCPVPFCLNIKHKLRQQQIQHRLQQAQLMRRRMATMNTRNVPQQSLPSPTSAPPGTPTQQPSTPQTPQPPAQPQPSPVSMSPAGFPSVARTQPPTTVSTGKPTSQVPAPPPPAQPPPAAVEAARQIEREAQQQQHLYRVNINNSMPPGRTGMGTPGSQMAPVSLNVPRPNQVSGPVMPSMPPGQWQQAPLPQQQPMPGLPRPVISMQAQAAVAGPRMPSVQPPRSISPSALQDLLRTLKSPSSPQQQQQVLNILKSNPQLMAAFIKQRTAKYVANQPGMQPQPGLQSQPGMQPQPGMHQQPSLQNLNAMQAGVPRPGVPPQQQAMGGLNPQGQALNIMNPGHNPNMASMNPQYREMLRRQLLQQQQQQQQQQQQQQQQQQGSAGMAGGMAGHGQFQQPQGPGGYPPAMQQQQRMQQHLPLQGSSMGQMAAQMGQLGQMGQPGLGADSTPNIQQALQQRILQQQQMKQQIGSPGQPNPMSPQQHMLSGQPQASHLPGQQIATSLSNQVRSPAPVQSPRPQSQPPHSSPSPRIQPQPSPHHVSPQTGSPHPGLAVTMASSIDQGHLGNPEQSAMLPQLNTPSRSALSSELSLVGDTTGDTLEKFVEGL

With `COc1ccc(CCc2nc3c(C)c(-c4c(C)noc4C)c(C)cc3n2CCN2CCOCC2)cc1` [ISOX-INACT], the half-maximal inhibitory concentration (IC50) was 10.6 µM on CREB-binding protein [1] and above 120 µM in test [2].
Regarding `CCCOc1ccc(CCc2nc3cc(-c4c(C)noc4C)ccc3n2CCN2CCOCC2)cc1` [PF-CBP1], the IC50 at CREB-binding protein [1] was 0.13 µM; in test [2] it was 18.1 µM. Moreover, the Kd on CREB-binding protein [3] was 0.19 µM; in test [4], above 20 µM.
